Experimental findings from BindingDB's records for doi:10.1016/j.ejmech.2010.02.027 (University of Florida, 2010) are described below.

SMILES strings stand for the structures.

As usually defined, the Ki is a dissociation constant, usually derived from enzyme kinetics or from competition with a known ligand. Higher therefore signals lower affinity.

In this experiment the target is Neuronal acetylcholine receptor subunit alpha-4/beta-2 (Rattus norvegicus, UniProt P09483+P12390). The experiment in a line: Displacement of [3H]cytisine from alpha4beta2 nAChR in rat brain membrane after 3 hrs. On the technique in general: Loss of bound radioactivity is the signal in a displacement assay; it reports binding, not function.
Sequence of Neuronal acetylcholine receptor subunit alpha-4/beta-2 (P09483 whole entry): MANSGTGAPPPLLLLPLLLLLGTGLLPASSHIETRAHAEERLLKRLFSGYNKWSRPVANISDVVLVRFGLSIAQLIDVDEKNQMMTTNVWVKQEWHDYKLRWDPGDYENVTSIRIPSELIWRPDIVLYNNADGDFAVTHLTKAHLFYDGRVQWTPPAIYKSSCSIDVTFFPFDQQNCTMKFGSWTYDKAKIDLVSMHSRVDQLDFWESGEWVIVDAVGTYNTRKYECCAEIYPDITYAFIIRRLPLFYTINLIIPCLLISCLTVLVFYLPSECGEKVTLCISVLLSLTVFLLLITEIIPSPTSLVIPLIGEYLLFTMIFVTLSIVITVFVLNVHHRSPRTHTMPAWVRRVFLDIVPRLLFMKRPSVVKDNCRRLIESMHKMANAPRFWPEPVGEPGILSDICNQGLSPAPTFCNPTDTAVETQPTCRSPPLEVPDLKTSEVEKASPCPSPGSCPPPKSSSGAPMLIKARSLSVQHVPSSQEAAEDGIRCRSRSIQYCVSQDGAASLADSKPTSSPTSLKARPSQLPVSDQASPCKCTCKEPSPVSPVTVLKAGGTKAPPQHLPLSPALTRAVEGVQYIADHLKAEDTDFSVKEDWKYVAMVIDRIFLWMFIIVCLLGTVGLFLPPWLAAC
Sequence of Neuronal acetylcholine receptor subunit alpha-4/beta-2 (P12390 whole entry): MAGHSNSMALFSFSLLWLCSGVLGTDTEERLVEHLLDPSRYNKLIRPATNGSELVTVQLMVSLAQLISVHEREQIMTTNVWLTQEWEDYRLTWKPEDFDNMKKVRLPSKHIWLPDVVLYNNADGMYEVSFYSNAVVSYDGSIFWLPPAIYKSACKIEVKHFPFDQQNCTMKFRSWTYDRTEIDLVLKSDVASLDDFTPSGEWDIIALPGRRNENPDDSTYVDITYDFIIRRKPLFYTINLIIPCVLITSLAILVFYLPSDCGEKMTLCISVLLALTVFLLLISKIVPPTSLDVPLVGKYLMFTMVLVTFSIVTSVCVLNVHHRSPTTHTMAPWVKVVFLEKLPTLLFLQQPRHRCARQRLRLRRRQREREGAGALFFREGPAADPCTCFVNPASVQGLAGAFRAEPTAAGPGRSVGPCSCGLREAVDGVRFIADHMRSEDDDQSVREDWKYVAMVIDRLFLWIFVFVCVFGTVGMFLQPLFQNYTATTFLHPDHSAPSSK
On to `COc1cc(/C=C2\CCCN=C2c2cccnc2)cc(OC)c1OC` [3-(3,4,5-Trimethoxybenzylidene)anabaseine], for which the affinity, expressed as Ki, was 669 nM.

Turning to `CN(C)c1ccc(/C=C2\CCCN=C2c2cccnc2)cc1` [3-(4-Dimethylaminobenzylidene)anabaseine], the Ki turned out to be 770 nM.

With `COc1ccc(/C=C2\CCCN=C2c2cccnc2)c(OC(C)C)c1` [3-(2-i-Propoxy-4-methoxybenzylidene)anabaseine], the Ki came out at 770 nM.

Compound `CC(=O)Nc1ccc(/C=C2\CCCN=C2c2cccnc2)cc1` [N-(4-((2-(pyridin-3-yl)-5,6-dihydropyridin-3(4H)-ylidene)methyl)phenyl)acetamide] gave a Ki of 420 nM.

Turning to `CCCc1ccc(/C=C2\CCCN=C2c2cccnc2)cc1` [3-(4-n-Propylbenzylidene)anabaseine], the Ki amounted to 51 nM.

In turn, `C(=C1/CCCN=C1c1cccnc1)/c1cc2ccccc2o1` [3-(Benzofuran-2-ylmethylene)anabaseine] returned a Ki of 772 nM. Against the preceding compound, the Ki is about 15-fold higher.

`CCC(CC)Oc1cc(OC)ccc1/C=C1\CCCN=C1c1cccnc1` [3-[2-(Pentan-3-yloxy)-4-methoxybenzylidene]anabaseine] returned a Ki of 367 nM.

Compound `CC(=O)Oc1ccc(/C=C2\CCCN=C2c2cccnc2)cc1` [3-(4-Acetoxybenzylidene)anabaseine] registered a Ki of 602 nM.

As to `Nc1ccc(/C=C2\CCCN=C2c2cccnc2)cc1` [3-(4-Aminobenzylidene)anabaseine], the affinity, expressed as Ki, was 921 nM.
